Results on 3 compounds are retold here after ChEMBL document CHEMBL1121647, “Synthesis and antiviral properties of (Z)-5-(2-bromovinyl)-2'-deoxyuridine” (1981).

The assay deals with Vaccinia virus. As to the kind of experiment: Minimum inhibitory concentration required to reduce vaccinia virus-induced cytopathogenicity in primary rabbit kidney cell cultures. The format is functional. The note with it: Orthopoxvirus vaccinia. In general terms: Damage to the host cells serves as the signal in cytopathic effect assays.

Molecules are shown by their SMILES. ≈ marks a conversion by molar mass, not a printed value.

In turn, `O=c1[nH]c(=O)n([C@H]2C[C@H](O)[C@@H](CO)O2)cc1/C=C\Br` gave an MIC of 4 µg/mL (≈ 12 µM).
With `O=c1[nH]c(=O)n([C@H]2C[C@H](O)[C@@H](CO)O2)cc1/C=C/Br` [BRIVUDINE] the figure was 4 µg/mL (≈ 12 µM); with `O=c1[nH]c(=O)n([C@H]2C[C@H](O)[C@@H](CO)O2)cc1I` [IDOXURIDINE], 0.1 µg/mL (≈ 0.282 µM).
